The results in this text go back to US11673891B2, “Imidazopyrimidine compounds and uses thereof” (Dana-Farber Cancer Institute, Inc., priority 2017, dated 2023).

The subject of test [1] is human adult PBMCs. Briefly: 9-plex multiplex cytokine assay after stimulation of adult PBMCs. The class given is cell-based. The note with it: 0.1 μM-33 μM, 18 hours, 10% autologous plasma, fold-change over unstimulated control, N=4. How it is done: Shown is a 9-plex multiplex cytokine assay after stimulation of adult peripheral blood mononuclear cells (PBMCs) with compound 037 or R848 at four different concentrations (0.1 μM-33 μM). Radar plots of immune polarizing cytokine production from human adult PBMCs stimulated for 18 hours in 10% autologous plasma, represented as fold-change over RPMI unstimulated control (N=4).
(§1) ELISAs and Multiplex-Analyte Assays. Supernatants derived from human PBMCs and DC stimulations were assayed by ELISA for TNF (ThermoFisher Scientific; Waltham, Mass., USA). Cytokine and chemokine expression profiles (e.g., IFNγ, IL-9, IL-10, IL-12 (p70), IL-13, IL-1β, IL-23, IL-27, IL-28A, IL-33, IL-6, MIP-3α/CCL20, and TNF) in cell culture supernatants were measured using a customized Milliplex® Human Th17 Magnetic Bead Panel according to the manufacturer's instructions (Millipore, Chicago, Ill., USA). Assays were read and analyzed on the Luminex® 100/200™ System and xPOTENT® software (Luminex, Austin, Tex.). A minimum threshold was set at the minimum detectable concentration for each individual assay, defined as three standard deviations above the mean background.

For test [2], the system named is human adult PBMCs. Briefly: TNF production by ELISA after stimulation of human adult PBMCs. The format is cell-based. The note with it: 33 μM, 18 hours. Here is the method:
Table 1. Activity of Exemplary Imidazopyrimidine Compounds on Stimulating TNF Production in PBMCs as Compared to Compound R848 Table 1 provides the activity of exemplary compounds on stimulating TNF production in PBMCs as compared to the benchmark compound R848. Specifically, TNF production was measured by ELISA after stimulation of adult PBMCs with compound 037 analog family or the compound R848 at 33 μM for 18 hours. Analogs are ranked top to bottom by median percentage TNF production (TNF %) as compared to R848 (N=3-5). The compounds have been classified in the following categories according to TNF %: high activity—class A: TNF %>15%; medium activity—class B: 1%<TNF %≤15%; low activity—class C: TNF %≤1%.
as §1
PBMCs were isolated from blood using a Ficoll density gradient. PBMCs either used fresh or were stored at 5×10^7 cells per vial in 1 mL RPMI containing 20% autologous plasma and 10% DMSO at −80° C. until use. Stimulation plates were prepared by transferring 0.66 μl of DMSO-dissolved compounds (10 mM) to each well of a round bottom 96-well plate. PBMCs isolated from human adult donors were resuspended at a concentration of 10^5 cells/200 μl of RPMI supplemented with 10% of platelet-poor plasma. 200 μl of the cell suspension were transferred to each well resulting in a final compound concentration of […]. After about 18 hours of incubation (37° C., 5% CO2), plates were spun down (500×g, room temperature, 5 minutes) and supernatants were harvested for further analysis.
A general note: In an ELISA, binding on a coated surface is turned into a signal by an enzyme label.

A further test relates to THP1-Lucia cells. As to the kind of experiment: NF-kB-induced luminescence assay in THP1-Lucia cells. The note with it: in comparison to positive control R848, N=4. The format is cell-based, human. How it is done: THP-1 Cell Line and Culture Conditions. The THP1-Lucia™ cell line was obtained from Invivogen (San Diego, Calif.). THP1-Lucia cells, which are human monocytic cells derived from the blood of a child with leukemia, contain an NF-kB-inducible Luc reporter construct. This allows NF-kB activation to be measured by quantifying the luminescence from the secreted luciferase enzyme. THP1-Lucia cells were cultured in RPMI 1640 supplemented with 10% non-heat inactivated fetal bovine serum (FBS), 10 mM HEPES, 1.0 mM sodium pyruvate, 50 ug/ml Pen-Strep, and 100 ug/mL Normocin™. Once cultured, the cells were stored in a 37° C. incubator with 5% CO2 and a humidified atmosphere. Cells were passaged every 2-3 days and not allowed to exceed a concentration of 2.0×10^6 cells/ml media.
NF-kB-induced Luminescence Assay. THP1-Lucia cells between passage 15 and 18 and suspended in culture medium were dispensed into 384-well black clear-bottom plates (Corning 3712) at 30,000 cells/30 μl/well using a Combi liquid dispenser. […] Immediately after adding the substrate, the luminescence was read using a PerkinElmer Envision plate reader.

For the compound `CCC(C(=O)Nc1cc(-c2cn3cccnc3n2)ccc1C)c1ccccc1` (stereo not drawn) [Compound 37], in the test on human adult PBMCs [1], the “Cytokine response, 9-plex multiplex (in words)” value was “induced a broad concentration-dependent cytokine response”. For the same compound, the “TNF (Median)” value in the test on human adult PBMCs [2] (adult PBMCs, ELISA, median, N=3-5, unit not given (FIG. 6B/7B legends: TNF concentration in ng/ml)) is recorded as 2.403. The Activity class result with human adult PBMCs [2] (class according to TNF % as compared to R848, adult PBMCs) is “A (high activity—class A: TNF %>15%)”. Moreover, the “Production of human TNF by PBMCs (in words)” value in the test on human adult PBMCs [2] (human adult PBMCs, ELISA) is on record as “induces robust production of TNF-α”. Further, the “TNF % (Median)” value in the test on human adult PBMCs [2] (median percentage TNF production as compared to R848, adult PBMCs, N=3-5) came out at 69.79%. Besides, the “NF-κB-driven expression of luciferase in THP1 cells (in words)” value in the test with THP1-Lucia cells was “does not substantially activate THP1 cells”.
